Molecules are shown by their SMILES.

For this test, the target named is T1, Cyclin E/CDK2 (Homo sapiens, UniProt P24941).
T1 construct: The expressed protein was approximately 34 kDa in size; made in house; host or cells: SF9 insect cells (baculovirus, pVL1393)
As to the kind of experiment: Cyclin E/CDK2 in vitro kinase assay (SPA, 33P-ATP, biotinylated Histone H1 peptide). It counts as biochemical. Conditions: recombinant cyclin E/CDK2 from SF9 cells; 1 hour at room temperature; 8 point serial dilutions in duplicate.
As a reminder, the IC50 is the point on the concentration scale where inhibition reaches its midpoint. Turning to `Brc1cnc2c(NCc3cncnc3)cc(-c3ccccc3)cn12`, the IC50 was found to be 120 nM.
As for `Clc1ccccc1-c1cc(NCc2cncnc2)c2ncc(Br)n2c1`, the figure is 36 nM; as for `Nc1ncc(CNc2cc(-c3ccccc3Cl)cn3c(Br)cnc23)cn1`, 76 nM.

The record behind these values is patent publication US7452902B2, “Imidazopyridines as cyclin dependent kinase inhibitors” (Schering Corporation, priority 2002, dated 2008).
